Measurements reported in ChEMBL document CHEMBL4477209, “Indole-2-carboxamide-based MmpL3 Inhibitors Show Exceptional Antitubercular Activity in an Animal Model of Tuberculosis Infection” (J Med Chem, 2016).
Values after ≈ are worked out from the molar mass of the structure shown.

Tests used:
[1] = tested on: Mycobacterium tuberculosis; experiment: Inhibition of MmpL3 in clinical isolates of isoniazid/rifampin resistant Mycobacterium tuberculosis V2475 after 7 to 14 days by alamar blue assay
[2] = tested on: Mycobacterium tuberculosis; experiment: Inhibition of MmpL3 in clinical isolates of extensively drug resistant Mycobacterium tuberculosis TF274 after 7 to 14 days by alamar blue assay
[3] = tested on: Mycobacterium tuberculosis; experiment: Inhibition of MmpL3 in clinical isolates of extensively drug resistant Mycobacterium tuberculosis R506 after 7 to 14 days by alamar blue assay
[4] = tested on: Mycobacterium tuberculosis; experiment: Inhibition of MmpL3 in clinical isolates of isoniazid/rifampin resistant Mycobacterium tuberculosis KZN494 after 7 to 14 days by alamar blue assay
[5] = tested on: Mycobacterium tuberculosis H37Rv; experiment: Inhibition of MmpL3 TSK54R mutant in Mycobacterium tuberculosis H37Rv assessed as growth inhibition

SMILES | MIC [1] | MIC [2] | MIC [3] | MIC [4] | MIC [5]
O=C(NC1CCCCCCC1)c1cc2c(Cl)cc(Cl)cc2[nH]1 | 11 µM (≈ 3.73 µg/mL) | 11 µM (≈ 3.73 µg/mL) | 6 µM (≈ 2.04 µg/mL) | – | –
C[C@@H]1[C@H]2C[C@@H](C[C@H]1NC(=O)c1cc3c(F)cc(F)cc3[nH]1)C2(C)C | 47 µM (≈ 15.6 µg/mL) | 6 µM (≈ 1.99 µg/mL) | 12 µM (≈ 3.99 µg/mL) | 12 µM (≈ 3.99 µg/mL) | 0.0625 to 0.125 µg/mL (≈ 0.188 to 0.376 µM)
C[C@@H]1[C@H]2C[C@@H](C[C@H]1NC(=O)c1cc3c(Cl)cc(Cl)cc3[nH]1)C2(C)C | 171 µM (≈ 62.5 µg/mL) | 21 µM (≈ 7.67 µg/mL) | 21 µM (≈ 7.67 µg/mL) | 43 µM (≈ 15.7 µg/mL) | –
